In ChEMBL document CHEMBL1129889, “Design and synthesis of novel nonpeptide CCK-B receptor antagonists” (Bioorg Med Chem Lett, 1997):

Key:
[1] = target: T1, Gastrin/cholecystokinin type B receptor (Mus musculus, UniProt P56481); experiment: Inhibition of [125 I]CCK-8 binding to Cholecystokinin type B receptor of mouse cerebral cortex; type: tissue-based
T1 sequence (P56481 whole entry): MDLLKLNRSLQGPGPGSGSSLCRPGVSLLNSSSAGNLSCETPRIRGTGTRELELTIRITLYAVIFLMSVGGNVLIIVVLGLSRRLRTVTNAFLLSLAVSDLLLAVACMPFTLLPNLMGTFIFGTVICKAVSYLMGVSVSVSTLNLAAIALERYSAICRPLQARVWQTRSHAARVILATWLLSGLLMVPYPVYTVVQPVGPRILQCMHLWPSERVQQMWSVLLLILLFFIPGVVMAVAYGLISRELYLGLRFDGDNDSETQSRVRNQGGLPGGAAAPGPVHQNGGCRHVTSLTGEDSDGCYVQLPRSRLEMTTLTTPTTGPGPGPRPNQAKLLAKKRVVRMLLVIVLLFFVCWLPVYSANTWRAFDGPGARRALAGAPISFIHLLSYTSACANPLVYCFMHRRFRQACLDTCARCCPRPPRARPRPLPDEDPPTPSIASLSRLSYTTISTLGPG

[2] = target: T2, Cholecystokinin receptor type A (Rattus norvegicus, UniProt P30551); experiment: Inhibition of specific binding of [125 I] Bolton Hunter CCK-8 to Cholecystokinin type A receptor in the rat pancreas
T2 sequence (P30551 whole entry): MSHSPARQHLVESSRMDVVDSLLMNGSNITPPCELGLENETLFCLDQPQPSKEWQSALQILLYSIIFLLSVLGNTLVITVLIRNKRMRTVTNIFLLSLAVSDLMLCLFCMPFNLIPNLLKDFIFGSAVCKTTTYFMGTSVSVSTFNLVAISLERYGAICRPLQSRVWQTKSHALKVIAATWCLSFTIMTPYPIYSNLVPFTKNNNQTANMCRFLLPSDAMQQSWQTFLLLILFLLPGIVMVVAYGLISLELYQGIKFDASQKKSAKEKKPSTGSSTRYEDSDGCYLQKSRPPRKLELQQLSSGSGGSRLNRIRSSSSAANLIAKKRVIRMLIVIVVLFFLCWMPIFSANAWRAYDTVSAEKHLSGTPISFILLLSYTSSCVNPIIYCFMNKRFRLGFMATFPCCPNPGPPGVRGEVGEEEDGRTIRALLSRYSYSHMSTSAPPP

[3] = target: T3, Gastrin/cholecystokinin type B receptor (Mus musculus) (UniProt P56481); experiment: Binding activity
T3 sequence (whole entry): T1 sequence (P56481 whole entry)

| IC50 [1] | IC50 [2] | Ke [3] | SMILES |
| --- | --- | --- | --- |
| 137 nM | 984 nM | 1300 nM | CC(C)Oc1cccc(-n2c(CNC(=O)Nc3ccc(Br)cc3)nc3ccccc3c2=O)c1 |
| 585 nM | 1630 nM | – | CC(C)Oc1cccc(-n2c(CCNC(=O)Nc3ccc(Br)cc3)nc3ccccc3c2=O)c1 |
| 691 nM | 674 nM | – | CC(C)Oc1cccc(-n2c(CNC(=O)Nc3ccc(C(F)(F)F)cc3)nc3ccccc3c2=O)c1 |
| 652 nM | 3100 nM | – | CC(C)Oc1cccc(-n2c(CNC(=O)NCc3ccc(Br)cc3)nc3ccccc3c2=O)c1 |
| 8020 nM | 6930 nM | – | CC(C)Oc1cccc(-n2c(CNC(=S)Nc3ccc(Br)cc3)nc3ccccc3c2=O)c1 |
| 212 nM | 385 nM | – | CC(C)Oc1cccc(-n2c(CNC(=O)Nc3ccc([N+](=O)[O-])cc3)nc3ccccc3c2=O)c1 |
| 879 nM | 1640 nM | – | Cc1cccc(NC(=O)NCc2nc3ccccc3c(=O)n2-c2cccc(OC(C)C)c2)c1 |
| > 1000 nM | > 1000 nM | – | CC(C)Oc1cccc(-n2c(NC(=O)Nc3ccc(Br)cc3)nc3ccccc3c2=O)c1 |
| > 1000 nM | > 1000 nM | – | Cc1ccc(S(=O)(=O)NC(=O)NCc2nc3ccccc3c(=O)n2-c2cccc(OC(C)C)c2)cc1 |
| 126 nM | 1470 nM | 230 nM | CCOC(=O)c1cccc(NC(=O)NCc2nc3ccccc3c(=O)n2-c2cccc(OC(C)C)c2)c1 |
